Experimental data reported in ChEMBL document CHEMBL1201862, “PubChem BioAssay data set” (2004).
Calls of active or inactive are those of the source.

What was measured:
[1] = tested on: P388; assay: cells; format: functional; conditions: Mus musculus
[2] = tested on: SN12K1; assay: cells; format: functional; conditions: Homo sapiens
[3] = tested on: P388/ADR; assay: cells; format: functional; conditions: Mus musculus
[4] = blockers of HIV-1 envelope-mediated cell-cell fusion – cherry-pick, dose response (AID 652057); format: functional, cell-based
[5] = HIV-1 AD8 envelope cell-cell fusion blockers – cherry-pick, dose response (AID 652062); format: functional, cell-based;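 also: luciferase signal from cell-cell fusion driven by HIV-1 clade B AD8 Env; potency is for inhibitors of fusion seen as a drop in luminescence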
[6] = off-target signal loss in HeLa-CEM21 co-culture – HeLa F-luc CTL cells, cherry-picked, counter-screen for HIV-1 Env fusion inhibitor project, dose response (AID 652040); format: functional, cell-based;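 also: potency for signal decrease marking cytotoxic or nonspecific inhibition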
[7] = blockers of HIV-1 ZM109 envelope-driven cell-cell fusion – HeLa effector, CEM target cells, luciferase, cherry-pick, dose response (AID 652058); format: functional, cell-based;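 also: luciferase signal from HIV-1 Env mediated cell-cell fusion of effector and target cells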
[8] = blockade of melanocortin 4 receptor signaling – cell-based, plate reader, cherry pick, counter-screen for LGR2 antagonist project, dose response (AID 743444); format: functional;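 also: transfected HEK 293 cells stimulated with alpha-MSH peptide; potency of inhibitors of the alpha-MSH evoked signal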
[9] = tested on: HEK293; assay: EBV LMP1 TES2 canonical NF-kB signalling blockers – cell-based, HEK293, luciferase, cherry-pick, dose response (AID 588343); format: functional; conditions: Homo sapiens
[10] = blockers of bursicon-stimulated LGR2 cAMP reporter – cell-based, HEK293, CRE-luciferase reporter, cherry pick, set 2, dose response (AID 743343); format: functional;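 also: transfected cells were stimulated with diluted bursicon conditioned medium after compound addition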
[11] = biological target: T1, DNA repair protein RAD52 homolog (Homo sapiens, UniProt P43351); format: functional, biochemical
T1 sequence (P43351 whole entry): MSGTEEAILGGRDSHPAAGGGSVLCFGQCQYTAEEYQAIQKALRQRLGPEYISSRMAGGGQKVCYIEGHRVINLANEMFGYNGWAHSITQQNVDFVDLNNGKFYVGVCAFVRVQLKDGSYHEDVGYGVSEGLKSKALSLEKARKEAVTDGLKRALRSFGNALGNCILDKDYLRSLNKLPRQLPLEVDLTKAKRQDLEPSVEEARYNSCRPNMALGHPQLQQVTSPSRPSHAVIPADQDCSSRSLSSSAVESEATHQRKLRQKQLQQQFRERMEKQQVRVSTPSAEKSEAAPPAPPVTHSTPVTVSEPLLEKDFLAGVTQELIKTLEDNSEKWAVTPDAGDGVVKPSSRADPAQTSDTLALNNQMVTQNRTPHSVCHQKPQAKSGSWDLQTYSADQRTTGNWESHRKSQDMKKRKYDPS

[12] = Trypanosoma cruzi growth suppression in host cells – NIH3T3 host cells, beta-gal luminescence, confirmation (AID 2044); format: functional, cell-based;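 also: intracellular parasites grown in NIH/3T3 mouse fibroblasts as host cells; luminescent beta-galactosidase reporter signal from transgenic T. cruzi replicating inside host cells; inhibitors lower the luminescence signal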
[13] = reduction of Shn3 3'UTR-driven luciferase in osteoblasts – cell-based, Clone20 osteoblasts, firefly luciferase, cherry-picked, dose response (AID 624132); format: functional;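 also: firefly luciferase luminescence from reporter carrying the Shn3 3'UTR in osteoblasts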
[14] = cells; format: functional, cell-based
[15] = non-specific 3'UTR reporter inhibition in Clone20-Shn3RL – cell-based, Renilla luciferase, cherry-picked, counter-screen for Shn3 inhibitor project, dose response (AID 624133); format: functional
[16] = NIH3T3 cell viability loss – ATP luminescence, mouse fibroblasts, counter-screen, dose response (AID 2010); format: functional, cell-based;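 also: cells exposed to compound for about 90 hours before reading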
[17] = loss of viability in HepG2 cells – cell-based, CellTiter-Glo, cherry-picked, cytotoxicity control for Shn3 inhibitor project, dose response (AID 624134); format: functional
[18] = cells; format: functional, cell-based; remark: listed apart in the source
[19] = Luminescence Cell-Based Dose Retest to Confirm Inhibitors of Cancer Stem Cells. [Related pubchem assays (depositor defined):AID2717, AID2721]; format: functional; conditions: Homo sapiens
[20] = biological target: T2, Streptokinase A (Streptococcus pyogenes serotype M1, UniProt P10520); assay: viability-normalized secreted streptokinase activity reduction – plasminogen activation absorbance, OD405, dose response (AID 1914); format: functional, Streptococcus pyogenes M1 GAS;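 also: secreted streptokinase activity via plasminogen activation per viability signal from cell pellet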
T2 sequence (P10520 whole entry): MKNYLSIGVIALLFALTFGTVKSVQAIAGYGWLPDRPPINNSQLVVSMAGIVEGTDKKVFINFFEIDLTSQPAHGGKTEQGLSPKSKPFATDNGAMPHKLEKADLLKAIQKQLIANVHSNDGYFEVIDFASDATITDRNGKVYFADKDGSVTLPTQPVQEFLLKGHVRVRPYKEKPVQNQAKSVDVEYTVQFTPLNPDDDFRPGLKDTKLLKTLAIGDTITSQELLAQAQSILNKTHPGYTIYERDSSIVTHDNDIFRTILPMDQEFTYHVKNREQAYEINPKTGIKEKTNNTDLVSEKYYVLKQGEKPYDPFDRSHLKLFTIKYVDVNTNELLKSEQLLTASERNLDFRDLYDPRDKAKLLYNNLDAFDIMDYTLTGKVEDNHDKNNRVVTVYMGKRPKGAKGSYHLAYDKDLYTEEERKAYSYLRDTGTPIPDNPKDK

[21] = tested on: Streptococcus sp. 'group A'; assay: Streptococcus pyogenes SK(-)GAS viability under kanamycin – luminescence, BacTiterGlo, confirmation, counter-screen for streptokinase expression inhibitor project, dose response (AID 1900); format: functional, organism-based
[22] = tested on: Streptococcus; assay: GAS UMAA2166 growth inhibition – luminescence, BacTiterGlo, counter-screen for streptokinase expression inhibitor project, dose response (AID 1915); format: functional, organism-based;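 also: potency for reduction of bacterial viability or growth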
[23] = biological target: Cytochrome P450 2D6 (Homo sapiens, UniProt P10635);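 also: CYP2D6 member of a cytochrome P450 panel assay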
Cytochrome P450 2D6, sequence (P10635 whole entry, the tested form may be a part): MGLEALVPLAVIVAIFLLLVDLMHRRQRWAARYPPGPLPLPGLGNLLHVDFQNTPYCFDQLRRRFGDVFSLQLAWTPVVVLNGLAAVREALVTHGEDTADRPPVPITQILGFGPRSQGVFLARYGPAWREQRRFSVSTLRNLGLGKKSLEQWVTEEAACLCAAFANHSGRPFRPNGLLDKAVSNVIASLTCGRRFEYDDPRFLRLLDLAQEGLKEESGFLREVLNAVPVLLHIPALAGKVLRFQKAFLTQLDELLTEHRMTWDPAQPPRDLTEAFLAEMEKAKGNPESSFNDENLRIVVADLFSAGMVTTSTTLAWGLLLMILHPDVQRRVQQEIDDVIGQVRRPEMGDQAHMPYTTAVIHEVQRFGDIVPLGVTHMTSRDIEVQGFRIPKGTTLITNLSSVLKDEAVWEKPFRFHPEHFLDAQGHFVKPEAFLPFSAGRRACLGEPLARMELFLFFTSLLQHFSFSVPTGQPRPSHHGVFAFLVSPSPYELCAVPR

[24] = biological target: T3, Polyadenylate-binding protein 1 (Homo sapiens, UniProt P11940); assay: MLLE domain peptide-binding blockers, IC50 – biochemical, fluorescence polarization, FITC-PAM2 peptide, dose response (AID 602259); format: functional; conditions: read-out: IC50_Mean
T3 sequence (P11940 whole entry, the tested form may be a part): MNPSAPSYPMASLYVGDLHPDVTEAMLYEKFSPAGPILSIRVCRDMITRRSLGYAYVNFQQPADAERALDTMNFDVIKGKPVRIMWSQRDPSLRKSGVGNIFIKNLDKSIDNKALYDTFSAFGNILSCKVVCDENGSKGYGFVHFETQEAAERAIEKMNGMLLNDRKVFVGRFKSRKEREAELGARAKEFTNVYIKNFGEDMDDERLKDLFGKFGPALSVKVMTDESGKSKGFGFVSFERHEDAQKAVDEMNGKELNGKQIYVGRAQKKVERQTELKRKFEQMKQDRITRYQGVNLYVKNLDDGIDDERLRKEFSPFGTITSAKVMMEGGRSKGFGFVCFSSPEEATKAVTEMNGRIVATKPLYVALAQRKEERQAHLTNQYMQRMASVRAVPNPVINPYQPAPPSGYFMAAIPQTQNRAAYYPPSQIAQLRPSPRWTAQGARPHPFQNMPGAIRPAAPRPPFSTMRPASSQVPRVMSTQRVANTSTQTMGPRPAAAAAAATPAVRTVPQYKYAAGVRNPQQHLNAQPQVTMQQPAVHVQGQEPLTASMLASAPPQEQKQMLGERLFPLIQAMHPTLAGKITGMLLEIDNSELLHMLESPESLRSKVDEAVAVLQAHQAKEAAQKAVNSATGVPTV

[25] = biological target: T3, Polyadenylate-binding protein 1; assay: MLLE binding blockers, Cy5 peptide tracer – biochemical, fluorescence polarization, Cy5-PAM2 peptide, secondary, miRNA deadenylation inhibitor project, dose response (AID 602260); format: functional; conditions: read-out: IC50_Mean
[26] = biological target: Paired box protein Pax-8 (Homo sapiens, UniProt Q06710); assay: PAX8 transcriptional activity inhibition in RMG-I – RMG-I cells, luciferase, cherry-pick, dose response (AID 687027); format: functional, cell-based;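 also: luciferase reporter driven by Pax8 target thyroperoxidase promoter measured by SteadyGlo luminescence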
Paired box protein Pax-8, sequence (Q06710 whole entry): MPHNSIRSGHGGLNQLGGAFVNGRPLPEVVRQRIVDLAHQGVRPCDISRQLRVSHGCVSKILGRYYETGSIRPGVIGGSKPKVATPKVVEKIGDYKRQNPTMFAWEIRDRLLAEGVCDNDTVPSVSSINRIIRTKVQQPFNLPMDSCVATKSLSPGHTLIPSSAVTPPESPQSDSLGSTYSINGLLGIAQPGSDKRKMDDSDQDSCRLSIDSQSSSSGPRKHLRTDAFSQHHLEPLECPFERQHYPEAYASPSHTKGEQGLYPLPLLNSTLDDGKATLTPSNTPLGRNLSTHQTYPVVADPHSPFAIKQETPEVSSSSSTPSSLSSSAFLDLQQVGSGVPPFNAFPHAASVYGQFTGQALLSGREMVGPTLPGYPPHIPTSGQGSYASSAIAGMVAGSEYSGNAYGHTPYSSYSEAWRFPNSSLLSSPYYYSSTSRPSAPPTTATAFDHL

[27] = OVCAR8 cell viability loss – plate reader, dry powder samples, PAX8 project, dose response (AID 743197); format: functional, cell-based; conditions: OVCAR-8
[28] = biological target: Luciferin 4-monooxygenase (Photinus pyralis, UniProt P08659); assay: inhibition of purified Photinus pyralis luciferase – biochemical, luminescence, dose response (AID 1891)
Luciferin 4-monooxygenase, sequence (P08659 whole entry): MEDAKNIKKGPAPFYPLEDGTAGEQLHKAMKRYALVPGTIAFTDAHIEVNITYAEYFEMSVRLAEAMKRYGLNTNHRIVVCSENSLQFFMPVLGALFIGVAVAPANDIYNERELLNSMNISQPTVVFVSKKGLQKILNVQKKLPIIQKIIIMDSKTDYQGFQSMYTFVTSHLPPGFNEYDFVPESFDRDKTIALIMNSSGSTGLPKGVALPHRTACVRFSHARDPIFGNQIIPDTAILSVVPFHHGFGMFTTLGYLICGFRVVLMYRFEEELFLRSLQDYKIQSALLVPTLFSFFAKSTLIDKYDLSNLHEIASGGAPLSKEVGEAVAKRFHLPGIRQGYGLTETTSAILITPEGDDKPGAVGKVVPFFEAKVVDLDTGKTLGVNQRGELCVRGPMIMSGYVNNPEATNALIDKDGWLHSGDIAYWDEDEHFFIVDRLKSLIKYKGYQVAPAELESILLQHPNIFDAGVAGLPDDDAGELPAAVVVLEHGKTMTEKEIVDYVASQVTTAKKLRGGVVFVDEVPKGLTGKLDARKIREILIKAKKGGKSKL

[29] = alpha-synuclein stem-loop luciferase translation blockers – H4 neuroglioma cells, luminescence, confirmation (AID 1988); format: functional, cell-based
[30] = biological target: Cytochrome P450 2C9 (Homo sapiens, UniProt P11712)
Cytochrome P450 2C9, sequence (P11712 whole entry): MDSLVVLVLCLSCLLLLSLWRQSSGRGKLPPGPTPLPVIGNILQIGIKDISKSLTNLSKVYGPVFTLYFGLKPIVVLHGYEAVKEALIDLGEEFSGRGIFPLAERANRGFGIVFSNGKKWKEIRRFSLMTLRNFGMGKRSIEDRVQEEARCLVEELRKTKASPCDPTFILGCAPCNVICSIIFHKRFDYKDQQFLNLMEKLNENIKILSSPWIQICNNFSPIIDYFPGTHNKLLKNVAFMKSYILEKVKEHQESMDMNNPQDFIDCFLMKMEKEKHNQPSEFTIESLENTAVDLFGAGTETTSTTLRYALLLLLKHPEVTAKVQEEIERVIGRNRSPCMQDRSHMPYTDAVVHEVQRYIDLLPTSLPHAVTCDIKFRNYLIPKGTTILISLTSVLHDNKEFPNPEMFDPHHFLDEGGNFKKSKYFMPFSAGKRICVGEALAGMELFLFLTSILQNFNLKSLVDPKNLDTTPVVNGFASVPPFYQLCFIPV

[31] = Luminescence Cell-Based Dose Confirmation HTS to Identify Inhibitors of Platelet Dense Granule Release. [Related pubchem assays: 1663 (Primary HTS), 1678 (Summary of Project)]; format: functional
[32] = Luminescence Cell-Based Dose Response HTS to Identify Inhibitors of 5'UTR Stem-Loop Driven Prion Protein mRNA Translation in H4 Neuroglioblastoma Cells. [Related pubchem assays: 1827 (Project Summary), 1813 (Primary HTS)]; format: functional
[33] = luciferase reporter signal suppression in cells – H4 neuroglioma cells, luminescence, dose response (AID 1990); format: functional, cell-based

O=NN(CCF)C(=O)NC1CC2CCC1C2 (stereo not drawn)
GI50 [1]: 15.8 µM (inactive) | GI50 [2]: > 100 µM (inactive) | GI50 [3]: 24.5 µM (inactive)

Cc1ccc(S(=O)(=O)N2CCC(=O)N(CCOCc3ccc(C(F)(F)F)cc3)CC2)cc1
AC50 [4]: 5.79 µM (active) | AC50 [5]: 6.53 µM (active) | AC50 [6]: 14.6 µM (active) | AC50 [7]: 3.68 µM (active)

O=C(CN1C(=O)c2ccccc2S1(=O)=O)c1ccc(F)c(F)c1
AC50 [8]: 3.42 µM (active) | AC50 [9]: 6.76 µM (active) | AC50 [10]: 9.41 µM (active)

CCCNc1nc(Cl)nc(NCc2cccnc2)n1
AC50 [11]: 4.26 µM (active)

O=C(NNC(=O)c1cccnc1SCc1cccc([N+](=O)[O-])c1)c1ccccn1
EC50 [12]: 0.994 µM (active) | AC50 [13]: 1.9 µM (active) | EC50 [14]: > 350 µM (not active) | AC50 [15]: 1.32 µM (active) | EC50 [16]: 1.65 µM (active) | AC50 [17]: 7.84 µM (active) | EC50 [18]: 27.8 µM (active)

CCC/C=C(\CCC)C(NS(=O)(=O)c1ccc(C(F)(F)F)cc1)c1ccccc1 (stereo not drawn)
AC50 [19]: 3.36 µM (active) | EC50 [20]: 2.24 µM (active) | EC50 [21]: 2.73 µM (active) | EC50 [22]: 22.5 µM (active) | AC50 [23]: 20 µM (inconclusive)

O=C(c1ccc2ncsc2c1)N1CCN(c2nc3ccccc3s2)CC1
AC50 [4]: 4.18 µM (active) | AC50 [5]: 8.65 µM (active) | AC50 [6]: 3.19 µM (active) | AC50 [7]: 8.38 µM (active)

Cn1cc([N+](=O)[O-])c(C(=O)Nc2sc3c(c2C#N)CCC3)n1
AC50 [13]: 0.88 µM (active) | AC50 [17]: 8.93 µM (active)

COc1ccc(C(N)=S)c(OC)c1
AC50 [11]: 9.26 µM (active) | IC50 [24]: > 66 µM (inactive) | IC50 [25]: > 66 µM (inactive)

CCCCN1C2CCCC1CC(NC(=O)C1CCCCC1)C2 (stereo not drawn)
AC50 [9]: 237 µM (active)

CCN(C[C@H]1N[C@@](C)(C(=O)OC)[C@H]2C(=O)N(Cc3ccccc3)C(=O)[C@@H]12)S(=O)(=O)c1ccc(C)cc1
AC50 [4]: 5.73 µM (active) | AC50 [5]: 69.3 µM (active) | AC50 [6]: 21.4 µM (active) | AC50 [7]: 15 µM (active)

O=C(Cn1ccnc1[N+](=O)[O-])N(CCO)CCO
GI50 [1]: > 1250 µM (inactive) | GI50 [2]: > 1250 µM (inactive) | GI50 [3]: > 1250 µM (inactive)

C[C@H]1CN([C@@H](C)CO)C(=O)Cc2cc(NC(=O)Cc3ccccc3)ccc2O[C@H]1CN(C)S(=O)(=O)c1cccs1
AC50 [4]: 1.48 µM (active) | AC50 [5]: 3.35 µM (active) | AC50 [6]: 2.4 µM (active) | AC50 [7]: 2.26 µM (active)

CCN1CCN(Cc2ccc(NC(=O)c3ccc(C)c(NC(=O)c4ccno4)c3)cc2C(F)(F)F)CC1
AC50 [9]: 0.0518 µM (active)

CCOC(=O)C1=C(C(C)=O)CSC(c2ccccc2)=N1
GI50 [1]: > 100 µM (inactive) | GI50 [2]: > 100 µM (inactive) | GI50 [3]: 68.5 µM (inactive)

O=C(c1ccccc1O)c1cc(-c2ncc3c(=O)c4ccccc4oc3n2)c(-c2ccccc2O)[nH]c1=O
GI50 [1]: 19.7 µM (inactive) | GI50 [2]: 17.5 µM (inactive) | GI50 [3]: 22.4 µM (inactive)

COc1cccc(-c2nc3c(C(=O)NCCN(C)C)cccc3[nH]2)c1
GI50 [1]: 4.45 µM (inactive) | GI50 [2]: 12.4 µM (inactive) | GI50 [3]: 13.7 µM (inactive)

COC(=O)C(C/C=C(\C)c1ccccc1)C(C)=O (stereo not drawn)
GI50 [1]: 27.2 µM (inactive) | GI50 [2]: 45.2 µM (inactive) | GI50 [3]: 29 µM (inactive)

COC(=O)[C@]1(c2ccc(N(C)C)cc2OC)C[C@@H]2CCCN(CCc3c1[nH]c1ccccc31)C2
GI50 [1]: 16.7 µM (inactive) | GI50 [2]: 17.4 µM (inactive) | GI50 [3]: 18.1 µM (inactive)

O=C(C[C@H]1C[C@@H]2c3cc(NS(=O)(=O)c4ccc(F)cc4)ccc3O[C@@H]2[C@@H](CO)O1)NCc1ccc(-c2ccccc2)cc1
AC50 [26]: 7.31 µM (active) | AC50 [27]: 4 µM (active) | AC50 [4]: 23.1 µM (active) | AC50 [5]: 19.4 µM (active) | AC50 [7]: 9.89 µM (active)

COc1ccc(OC)c(CN2C(=O)c3ccccc3C2c2nnnn2-c2c(C)cccc2C)c1 (stereo not drawn)
AC50 [4]: 4.69 µM (active) | AC50 [6]: 19 µM (active) | AC50 [7]: 3.93 µM (active)

COc1cc(C2c3cc4c(cc3[C@@H](Nc3ccc(F)cc3)C3COC(=O)[C@H]23)OCO4)cc(OC)c1O (stereo partly drawn)
GI50 [1]: < 0.01 µM (active) | GI50 [3]: 0.09 µM (active)

O=C(O)c1ccc(N/N=C/c2ccc3ncccc3c2)cc1
AC50 [8]: 3.72 µM (active) | AC50 [9]: 2.54 µM (active) | AC50 [10]: 3.18 µM (active)

Cc1ccccc1CN1CC2=C(CCN(Cc3ccccc3)C2=O)N2CCN=C12
AC50 [13]: 2.41 µM (active) | AC50 [15]: 29.6 µM (active) | AC50 [17]: 3.31 µM (active)

CC(C)(C)n1nc(-c2ccc(Cl)cc2)c2c(N)ncnc21
EC50 [28]: 23.3 µM (active) | AC50 [9]: 12.2 µM (active) | EC50 [29]: 6.21 µM (active) | AC50 [30]: 7.08 µM (inconclusive) | EC50 [31]: 5.58 µM (active) | EC50 [32]: 12.4 µM (active) | EC50 [33]: 7.3 µM (active)
